Measured values from patent US7700617B2, “Salt of naphthyridine carboxylic acid derivative” (LG Life Sciences, Ltd., priority 1997, dated 2010).
In brackets after ≈: the same amount, converted by molar mass.

Legend:
[1] = Chemical stability at elevated temperature, decomposition by liquid chromatography; format: physicochemical; conditions: for Chemical stability compared with the anhydrate: 70° C., liquid chromatography; for Thermal stability with elapsed time: at 70° C.
Experimental: The present inventors also compared the chemical stability under heating of the hydrates with that of the anhydrate in order to identify the influence of hydration on the chemical stability. In this test, the anhydrate and hydrate were each kept at 70° C. for 4 weeks, and the extent of decomposition is analyzed by liquid chromatography. No difference in the extent of decomposition was noticed between the hydrates and the anhydrate, and thus confirming that the hydrate has the same chemical stability as the anhydrate.
The chemical stability of the n=3 hydrate of Example 2 and the n=1.5 hydrate of Example 3 and the anhydrate of Example 1 were compared at elevated temperature in order to determine the effect on chemical stability of the extent of hydration.
The anhydrate and each of the hydrates were introduced into a glass vial and maintained at 70° C. The extent of decomposition with elapsed time was analyzed by liquid chromatography.

[2] = Equilibrium moisture content determination of hydrates in desiccators of controlled relative humidity; format: physicochemical; conditions: for Relative humidity range with constant moisture content: FIGS. 3 and 4
Experimental: Six saturated aqueous salt solutions were introduced into each desiccator to control the inner relative humidity to a specific value as shown in Table 3. Then, equilibrium moisture contents of n=3 hydrate and n=1.5 hydrate of Examples 2 and 3, respectively, were determined at several relative humidities.
The sample (100 mg) was spread on a pre-weighed Petri dish and the total weight was accurately measured, then three of the sample were placed in each desiccator of Table 3. The desiccators were allowed to stand at normal temperature for 7 days and then the sample was taken to be weighed. After 13 days, one of the three samples inside each desiccator was taken and the moisture content of each was measured by the thermogravimetric analysis described in Test Example 2. Equilibrium moisture content at each relative humidity is represented in FIG. 3 (n=3 hydrate) and FIG. 4 (n=1.5 hydrate). […] Both hydrates are stable since they maintain a constant equilibrium moisture content regardless of the relative humidity change.

[3] = Observed moisture content of the methanesulfonate hydrates; format: physicochemical; conditions: by hydration number (n)
Description: The moisture content of the methanesulfonate hydrates varies with the hydration number (n) of the hydrated molecule. The methanesulfonate has a molecular weight of 485.5 thus the calculated moisture content of hydrates where n is 1, 1.5, 2, 2.5, 3, 3.5 and 4 is 3.6%, […], 6.9%, 8.5%, 10.0%, 11.5% and 12.9% respectively. However, the actual moisture content of the methanesulfonate hydrates may differ from the calculated value depending on various factors including recrystallization conditions and drying conditions.

[4] = test system: Acinetobacter calcoaceticus 15473; experiment: In vitro antibacterial activity, agar medium dilution method; format: cell-based; conditions: read-out: Minimum Inhibitory Concentration: MIC
Experimental: (§1) In order to determine whether 7-(3-aminomethyl-4-methyloxyimino-pyrrolidin-1-yl)-1-cyclopropyl-6-fluoro-4-oxo-1,4-dihydro-1,8-naphthyridine-3-carboxylic acid methanesulfonate has the same antibacterial activity as the free base, in vitro antibacterial activity of the methanesulfonate was measured using agar medium dilution method.

Bacillus subtilis 6633 = experiment: as above; format: cell-based; conditions: read-out: Minimum Inhibitory Concentration: MIC
Experimental: as §1

Escherichia coli 10536 = experiment: as above; format: cell-based; conditions: read-out: Minimum Inhibitory Concentration: MIC
Experimental: as §1

Escherichia coli 3190Y = experiment: as above; format: cell-based; conditions: read-out: Minimum Inhibitory Concentration: MIC
Experimental: as §1

Escherichia coli 851E = experiment: as above; format: cell-based; conditions: read-out: Minimum Inhibitory Concentration: MIC
Experimental: as §1

[5] = test system: Escherichia coli TEM3 3455E; experiment: as above; format: cell-based; conditions: TEM33455E, read-out: Minimum Inhibitory Concentration: MIC
Experimental: as §1

[6] = test system: Escherichia coli TEM5 3739E; experiment: as above; format: cell-based; conditions: TEM53739E, read-out: Minimum Inhibitory Concentration: MIC
Experimental: as §1

[7] = test system: Klebsiella aerogenes 1976E; experiment: as above; format: cell-based; conditions: read-out: Minimum Inhibitory Concentration: MIC
Experimental: as §1

Micrococcus luteus 9431 = experiment: as above; format: cell-based; conditions: read-out: Minimum Inhibitory Concentration: MIC
Experimental: as §1

Proteus vulgaris 6059 = experiment: as above; format: cell-based; conditions: read-out: Minimum Inhibitory Concentration: MIC
Experimental: as §1

[8] = test system: Pseudomonas aeruginosa 10145; experiment: as above; format: cell-based; conditions: read-out: Minimum Inhibitory Concentration: MIC
Experimental: as §1

[9] = test system: Pseudomonas aeruginosa 1912E; experiment: as above; format: cell-based; conditions: read-out: Minimum Inhibitory Concentration: MIC
Experimental: as §1

[10] = test system: Salmonella thypimurium 14028; experiment: as above; format: cell-based; conditions: read-out: Minimum Inhibitory Concentration: MIC
Experimental: as §1

Seratia marsecence 1826E = experiment: as above; format: cell-based; conditions: read-out: Minimum Inhibitory Concentration: MIC
Experimental: as §1

[11] = test system: Staphylococcus aureus 241; experiment: as above; format: cell-based; conditions: read-out: Minimum Inhibitory Concentration: MIC
Experimental: as §1

[12] = test system: Staphylococcus aureus 6538p; experiment: as above; format: cell-based; conditions: weight ratio, molecular weight not considered, read-out: Minimum Inhibitory Concentration: MIC
Experimental: as §1

Staphylococcus aureus 77 = experiment: as above; format: cell-based; conditions: read-out: Minimum Inhibitory Concentration: MIC
Experimental: as §1

[13] = test system: Staphylococcus aureus epidermidis 178; experiment: as above; format: cell-based; conditions: read-out: Minimum Inhibitory Concentration: MIC
Experimental: as §1

[14] = test system: Staphylococcus aureus epidermidis 887E; experiment: as above; format: cell-based; conditions: read-out: Minimum Inhibitory Concentration: MIC
Experimental: as §1

[15] = test system: Staphylococcus aureus faecalis 29212; experiment: as above; format: cell-based; conditions: read-out: Minimum Inhibitory Concentration: MIC
Experimental: as §1

[16] = test system: Staphylococcus aureus giorgio; experiment: as above; format: cell-based; conditions: read-out: Minimum Inhibitory Concentration: MIC
Experimental: as §1

[17] = test system: Citrobacter diversus 2046E; experiment: as above; format: cell-based; conditions: Citrobacter koseri, read-out: Minimum Inhibitory Concentration: MIC
Experimental: as §1

[18] = test system: Enterobacter cloacae 1194E; experiment: as above; format: cell-based; conditions: read-out: Minimum Inhibitory Concentration: MIC
Experimental: as §1

Enterobacter cloacae P99 = experiment: as above; format: cell-based; conditions: read-out: Minimum Inhibitory Concentration: MIC
Experimental: as §1

[19] = test system: Escherichia coli TEM9 2639E; experiment: as above; format: cell-based; conditions: TEM92639E, read-out: Minimum Inhibitory Concentration: MIC
Experimental: as §1

[20] = test system: Klebsiella aerogenes 1082E; experiment: as above; format: cell-based; conditions: read-out: Minimum Inhibitory Concentration: MIC
Experimental: as §1

[21] = Moisture sorption of the anhydrate, automatic moisture sorption analyzer; format: physicochemical; conditions: 25° C., each relative humidity 0 to 95%, in most cases
Experimental: The moisture sorption velocity and the equilibrium moisture content of the anhydrate of Example 1 was determined by means of an automatic moisture sorption analyzer (MB 300G Gravimetric Sorption Analyzer). This instrument produces a specific relative humidity at a specific temperature and continuously records the weight change of a sample due to adsorption or desorption of moisture as measured by a micro balance inside the instrument. The anhydrate of Example 1 (16 mg) was loaded onto the micro balance and the moisture contained in the sample removed under a stream of dried nitrogen at 50° C. A weight change of less than 5 μg per 5 minutes was the criterion for complete dryness. Thereafter, the inner temperature was adjusted to 25° C. and the sample tested at 5% intervals whilst varying the humidity from 0 to 95%. The sample was considered to have reached equilibrium when the weight change was less than 5 μg per 5 minutes. […] It is clear from FIG. 2 that the equilibrium moisture content of the anhydrate is dependent on the relative humidity.

CON=C1CN(c2nc3c(cc2F)c(=O)c(C(=O)O)cn3C2CC2)CC1CN.CON=C1CN(c2nc3c(cc2F)c(=O)c(C(=O)O)cn3C2CC2)CC1CN.CS(=O)(=O)O.CS(=O)(=O)O.O.O.O (centres unmarked) [n = 1.5 hydrate, 7-(3-aminomethyl-4-methoxyiminopyrrolidin-1-yl)-1-cyclopropyl-6-fluoro-4-oxo-1,4-dihydro-1,8-naphthyridine-3-carboxylic acid methanesulfonate n=1.5 hydrate]
Chemical stability compared with the anhydrate ([1]; 4 weeks): same degree of chemical stability as the anhydrate
Thermal stability with elapsed time ([1]; 1 week): 97.3%
Thermal stability with elapsed time ([1]; 2 weeks): 95.8%
Thermal stability with elapsed time ([1]; 3 weeks): 97.2%
Thermal stability with elapsed time ([1]; 4 weeks): 96.2%
Thermal stability with elapsed time ([1]; Initial): 100%
Relative humidity range with constant moisture content [2]: 23 to 64%
Water taken up ([2]; above 75% relative humidity): over 10%
Equilibrium moisture content ([2]; relative humidity 23 to 64%): around 5%
Moisture Content ([3]; listed as 1.5, hydrate): 4~6 % w/w

CON=C1CN(c2nc3c(cc2F)c(=O)c(C(=O)O)cn3C2CC2)CC1CN.CON=C1CN(c2nc3c(cc2F)c(=O)c(C(=O)O)cn3C2CC2)CC1CN.CS(=O)(=O)O.CS(=O)(=O)O.O.O.O.O.O.O.O (centres unmarked) [n = 3.5 hydrate]
Moisture Content [3]: 11~12 % w/w

O=C(O)c1cn(C2CC2)c2cc(N3CCNCC3)c(F)cc2c1=O [Ciprofloxacin, ciprofloxacin, reference compound]
MIC [4]: 0.25 µg/mL (≈ 0.754 µM)
MIC (Bacillus subtilis 6633): 0.031 µg/mL (≈ 0.0936 µM)
MIC (Escherichia coli 10536): < 0.008 µg/mL
MIC (Escherichia coli 3190Y): < 0.008 µg/mL
MIC (Escherichia coli 851E): < 0.008 µg/mL
MIC [5]: 0.5 µg/mL (≈ 1.51 µM)
MIC [6]: 0.13 µg/mL (≈ 0.392 µM)
MIC [7]: 0.13 µg/mL (≈ 0.392 µM)
MIC (Micrococcus luteus 9431): 2 µg/mL (≈ 6.04 µM)
MIC (Proteus vulgaris 6059): 0.031 µg/mL (≈ 0.0936 µM)
MIC [8]: 0.5 µg/mL (≈ 1.51 µM)
MIC [9]: 0.13 µg/mL (≈ 0.392 µM)
MIC [10]: 0.031 µg/mL (≈ 0.0936 µM)
MIC (Seratia marsecence 1826E): 0.063 µg/mL (≈ 0.19 µM)
MIC [11]: 128 µg/mL (≈ 386 µM)
MIC [12]: 0.13 µg/mL
MIC (Staphylococcus aureus 77): 0.25 µg/mL (≈ 0.754 µM)
MIC [13]: 128 µg/mL (≈ 386 µM)
MIC [14]: 0.13 µg/mL (≈ 0.392 µM)
MIC [15]: 0.5 µg/mL (≈ 1.51 µM)
MIC [16]: 0.13 µg/mL (≈ 0.392 µM)

CON=C1CN(c2nc3c(cc2F)c(=O)c(C(=O)O)cn3C2CC2)CC1CN.CON=C1CN(c2nc3c(cc2F)c(=O)c(C(=O)O)cn3C2CC2)CC1CN.CS(=O)(=O)O.CS(=O)(=O)O.O.O.O.O.O (centres unmarked) [n = 2.5 hydrate]
Moisture Content [3]: 8~9 % w/w

CON=C1CN(c2nc3c(cc2F)c(=O)c(C(=O)O)cn3C2CC2)CC1CN.CS(=O)(=O)O (centres unmarked) [Methanesulfonic acid salt, 7-(3-aminomethyl-4-methyloxyimino-pyrrolidin-1-yl)-1-cyclopropyl-6-fluoro-4-oxo-1,4-dihydro-1,8-naphthyridine-3-carboxylic acid methanesulfonate]
MIC [4]: 0.031 µg/mL
MIC (Bacillus subtilis 6633): 0.016 µg/mL
MIC [17]: 0.031 µg/mL
MIC [18]: 0.031 µg/mL
MIC (Enterobacter cloacae P99): 0.016 µg/mL
MIC (Escherichia coli 10536): 0.008 µg/mL
MIC (Escherichia coli 3190Y): 0.008 µg/mL
MIC (Escherichia coli 851E): 0.016 µg/mL
MIC [5]: 0.25 µg/mL
MIC [6]: 0.13 µg/mL
MIC [19]: 0.031 µg/mL
MIC [20]: 0.031 µg/mL
MIC [7]: 0.13 µg/mL
MIC (Micrococcus luteus 9431): 0.13 µg/mL
MIC (Proteus vulgaris 6059): 0.25 µg/mL
MIC [8]: 0.5 µg/mL
MIC [9]: 0.25 µg/mL
MIC [10]: 0.031 µg/mL
MIC (Seratia marsecence 1826E): 0.13 µg/mL
MIC [11]: 4 µg/mL
MIC [12]: 0.016 µg/mL
MIC (Staphylococcus aureus 77): 0.031 µg/mL
MIC [13]: 4 µg/mL
MIC [14]: 0.016 µg/mL
MIC [15]: 0.13 µg/mL
MIC [16]: 0.016 µg/mL

CON=C1CN(c2nc3c(cc2F)c(=O)c(C(=O)O)cn3C2CC2)CC1CN.CS(=O)(=O)O (centres unmarked) [Anhydrate, 7-(3-aminomethyl-4-methoxyiminopyrrolidin-1-yl)-1-cyclopropyl-6-fluoro-4-oxo-1,4-dihydro-1,8-naphthyridine-3-carboxylic acid methanesulfonate anhydrate]
Thermal stability with elapsed time ([1]; 1 week): 99.8%
Thermal stability with elapsed time ([1]; 2 weeks): 98.6%
Thermal stability with elapsed time ([1]; 3 weeks): 97.7%
Thermal stability with elapsed time ([1]; 4 weeks): 96.7%
Thermal stability with elapsed time ([1]; Initial): 100%
Time to reach moisture sorption equilibrium [21]: ≤ 2 h

CON=C1CN(c2nc3c(cc2F)c(=O)c(C(=O)O)cn3C2CC2)CC1CN.CS(=O)(=O)O.O.O.O.O (centres unmarked) [n = 4 hydrate]
Moisture Content [3]: 12~13 % w/w

CON=C1CN(c2nc3c(cc2F)c(=O)c(C(=O)O)cn3C2CC2)CC1CN.CS(=O)(=O)O.O.O.O (centres unmarked) [n = 3 hydrate, 7-(3-aminomethyl-4-methoxyiminopyrrolidin-1-yl)-1-cyclopropyl-6-fluoro-4-oxo-1,4-dihydro-1,8-naphthyridine-3-carboxylic acid methanesulfonate n=3 hydrate]
Chemical stability compared with the anhydrate ([1]; 4 weeks): same degree of chemical stability as the anhydrate
Thermal stability with elapsed time ([1]; 1 week): 102.4%
Thermal stability with elapsed time ([1]; 2 weeks): 100.7%
Thermal stability with elapsed time ([1]; 3 weeks): 99.2%
Thermal stability with elapsed time ([1]; 4 weeks): 99.2%
Thermal stability with elapsed time ([1]; Initial): 100%
Relative humidity range with constant moisture content [2]: 23 to 75%
Equilibrium moisture content ([2]; relative humidity 23 to 75%, about 2 weeks): around 10%
